How the values were obtained:
Format in all cases: in vivo
[1] = tested on: Bemisia tabaci (Cotton White Fly); assay: Example B1: Activity against Bemisia tabaci (cotton white fly), sprayed cotton leaf discs; conditions: foliar, 144 h, application rate of 200 ppm, adult white flies on cotton leaf discs, 6 days after incubation
Procedure: Example B1: Activity Against Bemisia tabaci (Cotton White Fly)
Cotton leaf discs were placed on agar in 24-well microtiter plates and sprayed with aqueous test solutions prepared from 10′000 ppm DMSO stock solutions. After drying the leaf discs were infested with adult white flies. The samples were checked for mortality 6 days after incubation.

[2] = tested on: Diabrotica balteata (Corn Root Worm); assay: Example B2: Activity against Diabrotica balteata (corn root worm), sprayed maize sprouts; conditions: 96 h, application rate of 200 ppm, L2 larvae on maize sprouts, 4 days after infestation, read-out: effect in at least one of the two categories (mortality or growth inhibition)
Procedure: Example B2: Activity Against Diabrotica balteata (Corn Root Worm)
Maize sprouts placed onto an agar layer in 24-well microtiter plates were treated with aqueous test solutions prepared from 10′000 ppm DMSO stock solutions by spraying. After drying, the plates were infested with L2 larvae (6 to 10 per well). The samples were assessed for mortality and growth inhibition in comparison to untreated samples 4 days after infestation.

[3] = tested on: Euschistus heros (Neotropical Brown Stink Bug); assay: Example B3: Activity against Euschistus heros (neotropical brown stink bug), sprayed soybean leaf; conditions: 120 h, application rate of 200 ppm, N-2 nymphs on soybean leaf, 5 days after infestation, read-out: effect in at least one of the two categories (mortality or growth inhibition)
Procedure: Example B3: Activity Against Euschistus heros (Neotropical Brown Stink Bug)
Soybean leaf on agar in 24-well microtiter plates were sprayed with aqueous test solutions prepared from 10′000 ppm DMSO stock solutions. After drying the leaf were infested with N-2 nymphs. The samples were assessed for mortality and growth inhibition in comparison to untreated samples 5 days after infestation.

[4] = tested on: Myzus persicae (Green Peach Aphid); assay: Example B6: Activity against Myzus persicae (green peach aphid), sprayed sunflower leaf discs; conditions: foliar, 144 h, application rate of 200 ppm, aphid population of mixed ages on sunflower leaf discs, 6 days after infestation
Procedure: Example B6: Activity Against Myzus persicae (Green Peach Aphid)
Sunflower leaf discs were placed on agar in a 24-well microtiter plate and sprayed with aqueous test solutions prepared from 10′000 ppm DMSO stock solutions. After drying, the leaf discs were infested with an aphid population of mixed ages. The samples were assessed for mortality 6 days after infestation.

[5] = tested on: Myzus persicae (Green Peach Aphid); assay: Example B7: Activity against Myzus persicae (green peach aphid), roots of pea seedlings in test solution; conditions: 144 h, test rate of 24 ppm, roots of infested pea seedlings in test solution, 6 days
Procedure: Example B7: Activity Against Myzus persicae (Green Peach Aphid)
Roots of pea seedlings infested with an aphid population of mixed ages were placed directly in the aqueous test solutions prepared from 10′000 DMSO stock solutions. The samples were assessed for mortality 6 days after placing seedlings in test solutions.

[6] = tested on: Plutella xylostella (Diamond Back Moth); assay: Example B8: Activity against Plutella xylostella (diamond back moth), L2 larvae, artificial diet; conditions: 120 h, application rate of 200 ppm, 5 days after infestation, read-out: effect in at least one of the two categories (mortality or growth inhibition)
Procedure: Example B8: Activity Against Plutella xylostella (Diamond Back Moth)
24-well microtiter plates with artificial diet were treated with aqueous test solutions prepared from 10′000 ppm DMSO stock solutions by pipetting. After drying, the plates were infested with L2 larvae (10 to 15 per well). The samples were assessed for mortality and growth inhibition in comparison to untreated samples 5 days after infestation.

[7] = tested on: Spodoptera littoralis (Egyptian Cotton Leaf Worm); assay: Example B9: Activity against Spodoptera littoralis (Egyptian cotton leaf worm), sprayed cotton leaf discs; conditions: foliar, 72 h, application rate of 200 ppm, L1 larvae on cotton leaf discs, 3 days after infestation
Procedure: Example B9: Activity Against Spodoptera littoralis (Egyptian Cotton Leaf Worm)
Cotton leaf discs were placed onto agar in 24-well microtiter plates and sprayed with aqueous test solutions prepared from 10′000 ppm DMSO stock solutions. After drying the leaf discs were infested with five L1 larvae. The samples were assessed for mortality, anti-feeding effect, and growth inhibition in comparison to untreated samples 3 days after infestation. Control of Spodoptera littoralis by a test sample is given when at least one of the categories mortality, anti-feedant effect, and growth inhibition is higher than the untreated sample.

[8] = tested on: Nilaparvata lugens (Brown Plant Hopper); assay: Example B11: Activity against Nilaparvata lugens (brown plant hopper), larvicide, feeding/contact; conditions: 168 h, application rate of 50 ppm, N3 nymphs on sprayed rice plants, 7 days after the treatment
Procedure: Example B11: Activity Against Nilaparvata lugens (Brown Plant Hopper) Larvicide, Feeding/Contact
Rice plants were treated with the diluted test solutions in a spray chamber. After drying plants were infested with ˜20 N3 nymphs. 7 days after the treatment samples were assessed for mortality and growth regulation.

[9] = tested on: Nilaparvata lugens (Brown Plant Hopper); assay: Example B12: Activity against Nilaparvata lugens (brown plant hopper), larvicide, systemic into water; conditions: 168 h, application rate of 12.5 ppm, systemic into nutritive solution, rice plants, N3 nymphs, 7 days after infestation
Procedure: Example B12: Activity Against Nilaparvata lugens (Brown Plant Hopper) Larvicide, Systemic into Water
Rice plants cultivated in a nutritive solution were treated with the diluted test solutions into nourishing cultivation system. 1 day after application plants were infested with ˜20 N3 nymphs. 7 days after infestation samples were assessed for mortality and growth regulation.

[10] = tested on: Carpocapsa (Cydia) pomonella (Codling Moth); assay: Example B15: Activity against Carpocapsa (Cydia) pomonella (codling moth), larvicide, feeding/contact; conditions: 336 h, application rate of 12.5 ppm, L1 larvae on sprayed diet cubes, 14 days after infestation, read-out: effect in at least one of the two categories (mortality or growth inhibition)
Procedure: Example B15: Activity Against Carpocapsa (Cydia) pomonella (Codling Moth), Larvicide, Feeding/Contact
Diet cubes coated with paraffin were sprayed with diluted test solutions in an application chamber. After drying off the treated cubes (10 replicates) were infested with 1 L1 larvae. Samples were incubated at 26-27° C. and checked 14 days after infestation for mortality and growth inhibition.

[11] = tested on: Tetranychus urticae (Two-Spotted Spider Mite); assay: Example B10: Activity against Tetranychus urticae (two-spotted spider mite), sprayed bean leaf discs; conditions: foliar, 192 h, application rate of 200 ppm, mixed population (mobile stages) on bean leaf discs, 8 days after infestation
Procedure: Example B10: Activity Against Tetranychus urticae (Two-Spotted Spider Mite)
Bean leaf discs on agar in 24-well microtiter plates were sprayed with aqueous test solutions prepared from 10′000 ppm DMSO stock solutions. After drying the leaf discs were infested with a mite population of mixed ages. The samples were assessed for mortality on mixed population (mobile stages) 8 days after infestation.

CCS(=O)(=O)c1cc(OC(C)(C)C#N)c(C)nc1-c1nc2cc(C(F)(F)F)nnc2n1C [Compound P11, 2-[[5-ethylsulfonyl-2-methyl-6-[7-methyl-3-(trifluoromethyl)imidazo[4,5-c]pyridazin-6-yl]-3-pyridyl]oxy]-2-methyl-propanenitrile]
≥ 80%: mortality at 200 ppm [1] | percent effect (mortality or growth inhibition) at 200 ppm [2] | percent effect (mortality or growth inhibition) at 200 ppm [3] | mortality at 200 ppm [4] | mortality at 24 ppm [5] | percent effect (mortality or growth inhibition) at 200 ppm [6] | percent control (mortality, anti-feedant effect or growth inhibition) at 200 ppm [7] | mortality at 50 ppm [8] | mortality at 12.5 ppm [9] | percent effect (mortality or growth inhibition) at 12.5 ppm [10]

CCS(=O)(=O)c1cc(OC(C)(C)C#N)cnc1-c1nc2cc(C(F)(F)F)n(OC)c(=O)c2n1C [Compound P5, 2-[[5-ethylsulfonyl-6-[5-methoxy-3-methyl-4-oxo-6-(trifluoromethyl)imidazo[4,5-c]pyridin-2-yl]-3-pyridyl]oxy]-2-methyl-propanenitrile]
≥ 80%: mortality at 200 ppm [1] | percent effect (mortality or growth inhibition) at 200 ppm [2] | percent effect (mortality or growth inhibition) at 200 ppm [3] | mortality at 200 ppm [4] | mortality at 24 ppm [5] | percent effect (mortality or growth inhibition) at 200 ppm [6] | percent control (mortality, anti-feedant effect or growth inhibition) at 200 ppm [7] | mortality at 200 ppm [11] | mortality at 12.5 ppm [9] | percent effect (mortality or growth inhibition) at 12.5 ppm [10]
